Experimental data: US12312359B2 (Vitae Pharmaceuticals, LLC, priority 2016, dated 2025)

Experiments:
[1] = test system: human acute monocytic leukemia cell line MV-4-11; experiment: Assay 2: cell proliferation assay (ATP quantitation, CellTiter-Glo), MV-4-11; format: cell-based; settings: MV-4-11 cells
Outline: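 Read-out is CellTiter-Glo luminescence quantifying ATP. Compound exposure lasted 72 h at 37° C., 5% CO2, with 1.67×10^4 MV-4-11 cells per well in 10% FBS medium, alongside HL-60 toxicity-control cells.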

[2] = target: T1, biotinylated wild-type menin and MLL-AF9 fusion protein (menin/MLL binding) (Homo sapiens, UniProt O00255); experiment: Assay 1: menin/MLL binding AlphaLISA assay, wild-type menin; settings: Table 30; column head does not say wild-type or mutated menin
T1 construct: made in house; host or cells: menin: E. coli; MLL-AF9-FLAG: HEK293 cells, used as cleared lysate
T1 sequence (O00255 1-610): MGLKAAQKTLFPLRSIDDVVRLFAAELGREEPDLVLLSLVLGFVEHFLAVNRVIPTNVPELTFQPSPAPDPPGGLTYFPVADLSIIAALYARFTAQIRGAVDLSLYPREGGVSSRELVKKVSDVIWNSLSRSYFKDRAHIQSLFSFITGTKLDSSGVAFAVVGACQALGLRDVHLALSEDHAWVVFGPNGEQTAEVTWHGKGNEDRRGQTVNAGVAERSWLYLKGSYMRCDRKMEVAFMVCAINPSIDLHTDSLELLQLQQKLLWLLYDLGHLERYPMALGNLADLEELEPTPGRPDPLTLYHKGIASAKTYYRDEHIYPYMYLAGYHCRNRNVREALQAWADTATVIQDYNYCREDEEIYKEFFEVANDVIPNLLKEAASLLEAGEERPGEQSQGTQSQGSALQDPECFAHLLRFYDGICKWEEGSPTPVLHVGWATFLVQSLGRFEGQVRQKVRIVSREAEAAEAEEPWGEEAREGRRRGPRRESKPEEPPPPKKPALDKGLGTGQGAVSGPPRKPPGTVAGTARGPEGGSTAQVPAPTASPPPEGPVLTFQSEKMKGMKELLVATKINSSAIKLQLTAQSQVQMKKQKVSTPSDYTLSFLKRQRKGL
Outline: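 Compound was preincubated 30 min at room temperature with biotinylated menin (5 nM) and MLL-AF9-FLAG lysate from HEK293 cells, pH 7.4 buffer with 5% DMSO and DTT. Bead-based Alpha signal after 60 min with streptavidin donor and anti-FLAG acceptor beads; four-parameter logistic fit gave IC50.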

Row | SMILES | EC50 ([1]; 72 h) | IC50 [2] | EC50 ([1]; Homo sapiens, MV4-11, 72 h)
1 | CCN(C(=O)c1cc(F)ccc1Oc1cncnc1N1CC2(CCN(C[C@H]3CC[C@H](NS(=O)(=O)CC)CC3)CC2)C1)C(C)C [Example 252, N-Ethyl-2-((4-(7-(((1r,4r)-4-(ethylsulfonamido)cyclohexyl)methyl)-2,7-diazaspiro[3.5]nonan-2-yl)pyrimidin-5-yl)oxy)-5-fluoro-N-isopropylbenzamide] |  | < 100 nM | < 100 nM
2 | O=c1[nH]c2ccc(CN3CCC4(CCN(c5ncncc5Oc5ccc(F)cc5-c5cccnc5C5CC5)C4)C3)cc2[nH]1 (stereo not drawn) [Example 180, 5-((7-(5-(2-(2-cyclopropylpyridin-3-yl)-4-fluorophenoxy)pyrimidin-4-yl)-2,7-diazaspiro[4.4]nonan-2-yl)methyl)-1,3-dihydro-2H-benzo[d]imidazol-2-one] |  | < 100 nM | < 100 nM
3 | Cn1c(-c2cc(F)ccc2Oc2cncnc2N2CC3(CCN(CC4CCC(NS(C)(=O)=O)CC4)CC3)C2)c(C2CC2)ccc1=O (stereo not drawn) [Example 80, N-(4-((2-(5-(2-(3-cyclopropyl-1-methyl-6-oxo-1,6-dihydropyridin-2-yl)-4-fluorophenoxy)pyrimidin-4-yl)-2,7-diazaspiro[3.5]nonan-7-yl)methyl)cyclohexyl) methanesulfon-amide] |  | < 100 nM | < 100 nM
4 | CC(C)N(C)C(=O)c1cc(F)ccc1Oc1cncnc1N1CCC2(CCN(Cc3ccc(N4CCOC4=O)cc3)C2)C1 (stereo not drawn) [Example 142, 5-fluoro-N-isopropyl-N-methyl-2-((4-(7-(4-(2-oxooxazolidin-3-yl)benzyl)-2,7-diazaspiro[4.4]nonan-2-yl)pyrimidin-5-yl)oxy)benzamide] | ≥ 1000 nM | < 100 nM | 
5 | CC(C)CCc1cc(F)ccc1Oc1cncnc1N1CCC2(CCN(Cc3ccc4[nH]c(=O)[nH]c4c3)C2)C1 (stereo not drawn) [Example 235, 5-((7-(5-(4-fluoro-2-isopentylphenoxy)pyrimidin-4-yl)-2,7-diazaspiro[4.4]nonan-2-yl)methyl)-1,3-dihydro-2H-benzo[d]imidazol-2-one] |  | < 100 nM | 100 to 1000 nM
6 | CC(C)N(C)C(=O)c1cc(F)ccc1Oc1cncnc1N1CCC2(CCN(Cc3ccc4cn[nH]c4c3)C2)C1 (stereo not drawn) [Example 145, 2-((4-(7-((1H-indazol-6-yl)methyl)-2,7-diazaspiro[4.4]nonan-2-yl)pyrimidin-5-yl)oxy)-5-fluoro-N-isopropyl-N-methylbenzamide] |  | < 100 nM | 100 to 1000 nM
7 | CCN(C(=O)C(C)C)c1cc(F)ccc1Oc1cncnc1N1CC2(CCN(C[C@H]3CC[C@H](NC(=O)OC)CC3)CC2)C1 [Example 85, methyl ((1r,4r)-4-((2-(5-(2-(N-ethylisobutyramido)-4-fluorophenoxy)pyrimidin-4-yl)-2,7-diazaspiro[3.5]nonan-7-yl)methyl)cyclohexyl) carbamate] |  | < 100 nM | 100 to 1000 nM
8 | CN(C(=O)c1cc(F)ccc1Oc1cncnc1N1CCC2(CCN(Cc3ccc4[nH]c(=O)[nH]c4c3)C2)C1)C(C)(C)C (stereo not drawn) [Example 175, N-(tert-butyl)-5-fluoro-N-methyl-2-((4-(7-((2-oxo-2,3-dihydro-1H-benzo[d]imidazol-5-yl)methyl)-2,7-diazaspiro[4.4]nonan-2-yl)pyrimidin-5-yl)oxy)benzamide] |  | < 100 nM | ≥ 1000 nM
9 | CC(C)n1nc(C(F)(F)F)cc1-c1cc(F)ccc1Oc1cncnc1N1CC2(CN(CC3(O)CCCCC3)C2)C1 [Example 72, 1-((6-(5-(4-fluoro-2-(1-isopropyl-3-(trifluoromethyl)-1H-pyrazol-5-yl)phenoxy)pyrimidin-4-yl)-2,6-diazaspiro[3.3]heptan-2-yl)methyl)cyclohexan-1-ol] |  | < 100 nM | 100 to 1000 nM
10 | N#Cc1ccc(-c2cc(F)cc(F)c2Oc2cncnc2N2CCC3(CCN(Cc4ccc5[nH]c(=O)[nH]c5c4)C3)C2)c(C2CC2)c1 (stereo not drawn) [Example 199, 2-cyclopropyl-3′,5′-difluoro-2′-((4-(7-((2-oxo-2,3-dihydro-1H-benzo[d]imidazol-5-yl)methyl)-2,7-diazaspiro[4.4]nonan-2-yl)pyrimidin-5-yl)oxy)-[1,1′-biphenyl]-4-carbonitrile] | ≥ 1000 nM | < 100 nM | 
11 | CC(C)N(CCO)C(=O)c1cc(F)ccc1Oc1cncnc1N1CCC2(CCN(Cc3ccc4[nH]c(=O)[nH]c4c3)C2)C1 (stereo not drawn) [Example 5, 5-fluoro-N-(2-hydroxyethyl)-N-isopropyl-2-((4-(7-((2-oxo-2,3-dihydro-1H-benzo[d]imidazol-5-yl)methyl)-2,7-diazaspiro[4.4]nonan-2-yl)pyrimidin-5-yl)oxy)benzamide] |  | < 100 nM | < 100 nM
12 | N[C@H]1CC[C@H](CCN2CC3(C2)CN(c2ncncc2Oc2ccc(F)cc2-c2cccnc2C2CC2)C3)CC1 [Example 82, (1r,4r)-4-(2-(6-(5-(2-(2-cyclopropylpyridin-3-yl)-4-fluorophenoxy)pyrimidin-4-yl)-2,6-diazaspiro[3.3]heptan-2-yl)ethyl)cyclohexan-1-amine] |  | < 100 nM | 100 to 1000 nM

Now from value to compound:

Row | EC50 ([1]; 72 h) | IC50 [2] | EC50 ([1]; Homo sapiens, MV4-11, 72 h) | SMILES
13 | 100 to 1000 nM | < 100 nM |  | Cc1cc(C#N)ccc1-c1cc(F)ccc1Oc1cncnc1N1CCC2(CCN(Cc3ccc4[nH]c(=O)[nH]c4c3)C2)C1 (stereo not drawn) [Example 48, 5′-fluoro-2-methyl-2′-((4-(7-((2-oxo-2,3-dihydro-1H-benzo[d]imidazol-5-yl)methyl)-2,7-diazaspiro[4.4]nonan-2-yl)pyrimidin-5-yl)oxy)-[1,1′-biphenyl]-4-carbonitrile]
14 |  | < 100 nM | 100 to 1000 nM | O=c1[nH]c2ccc(CN3CCC4(CCN(c5ncncc5Oc5ccc(F)cc5OCC5CC5)C4)C3)cc2[nH]1 (stereo not drawn) [Example 54, 5-((7-(5-(2-(cyclopropylmethoxy)-4-fluorophenoxy)pyrimidin-4-yl)-2,7-diazaspiro[4.4]nonan-2-yl)methyl)-1,3-dihydro-2H-benzo[d]imidazol-2-one]
15 |  | < 100 nM | < 100 nM | CC(C)c1nccn1-c1cc(F)ccc1Oc1cncnc1N1CCC2(CCN(Cc3ccc4[nH]c(=O)[nH]c4c3)C2)C1 (stereo not drawn) [Example 53, 5-((7-(5-(4-fluoro-2-(2-isopropyl-1H-imidazol-1-yl)phenoxy)pyrimidin-4-yl)-2,7-diazaspiro[4.4]nonan-2-yl)methyl)-1H-benzo[d]imidazol-2(3H)-one]
16 |  | < 100 nM | ≥ 1000 nM | O=c1[nH]c2ccc(CN3CCC4(CCN(c5ncncc5Oc5ccc(F)cc5OCc5ccccc5)C4)C3)cc2[nH]1 (stereo not drawn) [Example 208, 5-((7-(5-(2-(benzyloxy)-4-fluorophenoxy)pyrimidin-4-yl)-2,7-diazaspiro [4.4]nonan-2-yl)methyl)-1,3-dihydro-2H-benzo[d]imidazol-2-one]
17 |  | < 100 nM | 100 to 1000 nM | CC(C)c1ncncc1-c1cc(F)ccc1Oc1cncnc1N1CC2(CCC(NC(C)(C)C)C2)C1 (stereo not drawn) [Example 96, N-(tert-butyl)-2-(5-(4-fluoro-2-(4-isopropylpyrimidin-5-yl)phenoxy)pyrimidin-4-yl)-2-azaspiro[3.4]octan-6-amine]
18 |  | < 100 nM | 100 to 1000 nM | CC(C)N(C(=O)c1cc(F)ccc1Nc1cncnc1N1CCC2(CC1)CN(C1CCC(NS(C)(=O)=O)CC1)C2)C(C)C (single isomer, unassigned) [Example 248A, 5-fluoro-N,N-diisopropyl-2-((4-(2-(4-(methylsulfonamido)cyclohexyl)-2,7-diazaspiro[3.5]nonan-7-yl)pyrimidin-5-yl)amino) benzamide]
19 |  | < 100 nM | < 100 nM | CN(C)C(c1cc(F)ccc1Oc1cncnc1N1CCC2(CCN(Cc3ccc4[nH]c(=O)[nH]c4c3)C2)C1)C1CCCC1 (stereo not drawn) [Example 8, 5-((7-(5-(2-(cyclopentyl(dimethylamino)methyl)-4-fluorophenoxy)pyrimidin-4-yl)-2,7-diazaspiro[4.4]nonan-2-yl)methyl)-1,3-dihydro-2H-benzo[d]imidazol-2-one]
20 |  | < 100 nM | < 100 nM | CC(C)N(C(=O)c1cc(F)ccc1Oc1cncnc1N1CC2(CC(N(C)C3CCOCC3)C2)C1)C(C)C [Example 240, 5-fluoro-N,N-diisopropyl-2-((4-(6-(methyl(tetrahydro-2H-pyran-4-yl)amino)-2-azaspiro[3.3]heptan-2-yl)pyrimidin-5-yl)oxy)benzamide]
21 |  | < 100 nM | ≥ 1000 nM | CC(C)(C)OC(=O)N[C@H]1CC[C@H](CN2CCC3(CCN(c4ncncc4Oc4ccc(F)cc4OC4CCCC4)C3)C2)CC1 (stereo partly drawn) [Example 147, tert-butyl ((1r,4r)-4-((7-(5-(2-(cyclopentyloxy)-4-fluorophenoxy)pyrimidin-4-yl)-2,7-diazaspiro[4.4]nonan-2-yl)methyl)cyclohexyl) carbamate]
